Here are results for 21 compounds from patent US12404239B2, “Modulators of BCL6 as ligand directed degraders” (Celgene Corporation, priority 2022, dated 2025).

In this test the target is T1, BCL6 (Homo sapiens, UniProt P41182).
T1 construct: HiBiT-tag knocked into endogenous BCL6 locus using CRISPR; endogenous in cells; host or cells: DHL-4_BCL6_HiBiT cells (CRISPR knock-in)
As to the kind of experiment: BCL6_HiBiT degradation assay (2 h). The format is cell-based. As to conditions: DHL-4_BCL6_HiBiT cells, read-out: YCon (% remaining maximal effect). As for the experimental part: A DHL-4 cell line with HiBiT-tag knocked into endogenous BCL6 locus using CRISPR was generated. The DHL-4_BCL6_HiBiT cells were dispensed into 384-well plates (Corning no. 3570) that were pre-spotted with compounds. Compounds were dispensed by an acoustic dispenser (ATS acoustic transfer system from EDC Biosystems) into a 384-well plate in a 10-point dose response curve using 3-fold dilutions starting at 1-10 μM and going down to […]. 25 μL of media (RPMI-1640+10% heat inactivated FBS+1×Pen/Strep) containing 2500 of DHL-4 was dispensed per well. Assay plates were incubated at 37° C. with 5% CO2 for 2 hours. After incubation, 25 μL of the Nano-Glo HiBiT lytic detection working solution (Promega, catalogue no. N3040, Madison, WI) was added to each well and incubated at room temperature for 15-30 min, protected from light. After 30 min, luminescence was read on an Envision or PHERAstar luminescence reader. To determine the EC50 value (the half-maximum effective concentration) and the level of the gradation (Yconstant) of a BCL6 degrader, luminescent signal normalized by DMSO control (Y) and compound concentration (x) was fitted using a four-parameter dose-response model (Y=(A+((B−A)/1+((C/x)^D) in Dotmatics. Fitted value C is the degradation EC50 and the minimum value A is the Y constant.
The degradation of BCL6 at 2 h in DHL-4 results are shown in Table 5, where EC50 is the half maximal effect and Ycon is the % remaining maximal effect.
Background: HiBiT is a short tag that completes a luciferase, so light tracks the accessible tagged protein.
For the compound `CN1C(=O)Cc2cc(Nc3nc(N4CCN(Cc5ccc6c(C7CCC(=O)NC7=O)nn(C)c6c5)CC4)ncc3Cl)ccc21` (stereo not drawn) [Example 17, 3-(6-((4-(5-chloro-4-((1-methyl-2-oxoindolin-5-yl)amino)pyrimidin-2-yl)piperazin-1-yl)methyl)-1-methyl-1H-indazol-3-yl)piperidine-2,6-dione], the Percent BCL6 remaining at maximal degradation (Ycon) is more than 60%.

For the compound `Cn1nc(C2CCC(=O)NC2=O)c2ccc(NC3CCN(c4ncc(Cl)c(Nc5ccc6c(c5)CC(=O)N6CC(F)(F)F)n4)CC3)cc21` (stereo not drawn) [Example 18, 3-(6-((1-(5-chloro-4-((2-oxo-1-(2,2,2-trifluoroethyl)indolin-5-yl)amino)pyrimidin-2-yl)piperidin-4-yl)amino)-1-methyl-1H-indazol-3-yl)piperidine-2,6-dione], the Percent BCL6 remaining at maximal degradation (Ycon) is more than 60%.

In the case of `C[C@H]1C[C@@H](Nc2ccc3c(C4CCC(=O)NC4=O)nn(C)c3c2)CCN1c1ncc(Cl)c(Nc2ccc3c(c2)CC(=O)N3C)n1` (stereo partly drawn) [Example 19, 3-(6-(((2S,4S)-1-(5-chloro-4-((1-methyl-2-oxoindolin-5-yl)amino)pyrimidin-2-yl)-2-methylpiperidin-4-yl)amino)-1-methyl-1H-indazol-3-yl)piperidine-2,6-dione], the Percent BCL6 remaining at maximal degradation (Ycon) is 20 to 60%.

As to `C[C@H]1C[C@@H](N(C)c2ncc(Cl)c(Nc3ccc4c(c3)CC(=O)N4C)n2)CCN1c1ccc2c(C3CCC(=O)NC3=O)nn(C)c2c1` (stereo partly drawn) [Example 20, 3-(6-((2S,4S)-4-((5-chloro-4-((1-methyl-2-oxoindolin-5-yl)amino)pyrimidin-2-yl)(methyl)amino)-2-methylpiperidin-1-yl)-1-methyl-1H-indazol-3-yl)piperidine-2,6-dione], the Percent BCL6 remaining at maximal degradation (Ycon) was in the range of 20 to 60%. Take `C[C@@H]1C[C@H](N(C)c2ccc3c(C4CCC(=O)NC4=O)nn(C)c3c2)CCN1c1ncc(Cl)c(Nc2ccc3c(c2)CC(=O)N3C)n1` (stereo partly drawn) [Example 21, 3-(6-(((2R,4R)-1-(5-chloro-4-((1-methyl-2-oxoindolin-5-yl)amino)pyrimidin-2-yl)-2-methylpiperidin-4-yl)(methyl)amino)-1-methyl-1H-indazol-3-yl)piperidine-2,6-dione]: the Percent BCL6 remaining at maximal degradation (Ycon) is more than 60%. Consider `C[C@@H]1C[C@H](Nc2ccc3c(C4CCC(=O)NC4=O)nn(C)c3c2)CCN1c1ncc(Cl)c(Nc2ccc3c(c2)CC(=O)N3C)n1` (stereo partly drawn) [Example 22, 3-(6-(((2R,4R)-1-(5-chloro-4-((1-methyl-2-oxoindolin-5-yl)amino)pyrimidin-2-yl)-2-methylpiperidin-4-yl)amino)-1-methyl-1H-indazol-3-yl)piperidine-2,6-dione], for which the Percent BCL6 remaining at maximal degradation (Ycon) was more than 60%. `C[C@@H]1C[C@@H](Nc2ccc3c(C4CCC(=O)NC4=O)nn(C)c3c2)CCN1c1ncc(Cl)c(Nc2ccc3c(c2)CC(=O)N3C)n1` (stereo partly drawn) [Example 23, 3-(6-(((2R,4S)-1-(5-chloro-4-((1-methyl-2-oxoindolin-5-yl)amino)pyrimidin-2-yl)-2-methylpiperidin-4-yl)amino)-1-methyl-1H-indazol-3-yl)piperidine-2,6-dione]: the Percent BCL6 remaining at maximal degradation (Ycon) is more than 60%. With `C[C@H]1C[C@@H](N(C)c2ccc3c(C4CCC(=O)NC4=O)nn(C)c3c2)CCN1c1ncc(Cl)c(Nc2ccc3c(c2)CC(=O)N3C)n1` (stereo partly drawn) [Example 24, 3-(6-(((2S,4S)-1-(5-chloro-4-((1-methyl-2-oxoindolin-5-yl)amino)pyrimidin-2-yl)-2-methylpiperidin-4-yl)(methyl)amino)-1-methyl-1H-indazol-3-yl)piperidine-2,6-dione], the Percent BCL6 remaining at maximal degradation (Ycon) is more than 60%.

On to `C[C@@H]1C[C@@H](N(C)c2ccc3c(C4CCC(=O)NC4=O)nn(C)c3c2)CCN1c1ncc(Cl)c(Nc2ccc3c(c2)CC(=O)N3C)n1` (stereo partly drawn) [Example 25, 3-(6-(((2R,4S)-1-(5-chloro-4-((1-methyl-2-oxoindolin-5-yl)amino)pyrimidin-2-yl)-2-methylpiperidin-4-yl)(methyl)amino)-1-methyl-1H-indazol-3-yl)piperidine-2,6-dione], for which the Percent BCL6 remaining at maximal degradation (Ycon) was more than 60%.

`C[C@@H]1CN(c2ncc(Cl)c(Nc3ccc4c(c3)CC(=O)N4C)n2)C[C@H](C)N1c1ccc2c(C3CCC(=O)NC3=O)nn(C)c2c1` (stereo partly drawn) [Example 26, 3-(6-((2S,6R)-4-(5-chloro-4-((1-methyl-2-oxoindolin-5-yl)amino)pyrimidin-2-yl)-2,6-dimethylpiperazin-1-yl)-1-methyl-1H-indazol-3-yl)piperidine-2,6-dione]: the Percent BCL6 remaining at maximal degradation (Ycon) is more than 60%. As to `C[C@@H]1CN(c2ccc3c(C4CCC(=O)NC4=O)nn(C)c3c2)C[C@@H](C)N1c1ncc(Cl)c(Nc2ccc3c(c2)CC(=O)N3C)n1` (stereo partly drawn) [Example 28, 3-(6-((3R,5R)-4-(5-chloro-4-((1-methyl-2-oxoindolin-5-yl)amino)pyrimidin-2-yl)-3,5-dimethylpiperazin-1-yl)-1-methyl-1H-indazol-3-yl)piperidine-2,6-dione], the Percent BCL6 remaining at maximal degradation (Ycon) is more than 60%. As for `C[C@H]1CN(c2ccc3c(C4CCC(=O)NC4=O)nn(C)c3c2)C[C@H](C)N1c1ncc(Cl)c(Nc2ccc3c(c2)CC(=O)N3C)n1` (stereo partly drawn) [Example 29, 3-(6-((3S,5S)-4-(5-chloro-4-((1-methyl-2-oxoindolin-5-yl)amino)pyrimidin-2-yl)-3,5-dimethylpiperazin-1-yl)-1-methyl-1H-indazol-3-yl)piperidine-2,6-dione], the figure is less than 20%; as for `C[C@@H]1CN(c2ccc3c(C4CCC(=O)NC4=O)nn(C)c3c2)C[C@H](C)N1c1ncc(Cl)c(Nc2ccc3c(c2)CC(=O)N3C)n1` (stereo partly drawn) [Example 30, 3-(6-((3R,5S)-4-(5-chloro-4-((1-methyl-2-oxoindolin-5-yl)amino)pyrimidin-2-yl)-3,5-dimethylpiperazin-1-yl)-1-methyl-1H-indazol-3-yl)piperidine-2,6-dione], more than 60%. As for `CN1C(=O)Cc2cc(Nc3nc(N4CCCC(Nc5ccc6c(C7CCC(=O)NC7=O)nn(C)c6c5)CC4)ncc3Cl)ccc21` (stereo not drawn) [Example 31, 3-(6-((1-(5-chloro-4-((1-methyl-2-oxoindolin-5-yl)amino)pyrimidin-2-yl)azepan-4-yl)amino)-1-methyl-1H-indazol-3-yl)piperidine-2,6-dione], the Percent BCL6 remaining at maximal degradation (Ycon) is more than 60%. Regarding `CN1C(=O)Cc2cc(Nc3nc(N4CCCN(c5ccc6c(C7CCC(=O)NC7=O)nn(C)c6c5)CC4)ncc3Cl)ccc21` (stereo not drawn) [Example 32, 3-(6-(4-(5-chloro-4-((1-methyl-2-oxoindolin-5-yl)amino)pyrimidin-2-yl)-1,4-diazepan-1-yl)-1-methyl-1H-indazol-3-yl)piperidine-2,6-dione], the Percent BCL6 remaining at maximal degradation (Ycon) is more than 60%. Consider `CN1C(=O)Cc2cc(Nc3nc(N4CC[C@@H](Nc5ccc6c(C7CCC(=O)NC7=O)nn(C)c6c5)[C@H](O)C4)ncc3Cl)ccc21` (stereo partly drawn) [Example 33, 3-(6-(((3R,4R)-1-(5-chloro-4-((1-methyl-2-oxoindolin-5-yl)amino)pyrimidin-2-yl)-3-hydroxypiperidin-4-yl)amino)-1-methyl-1H-indazol-3-yl)piperidine-2,6-dione], for which the Percent BCL6 remaining at maximal degradation (Ycon) is less than 20%. As for `Cn1nc(C2CCC(=O)NC2=O)c2ccc(N3CCN(c4ncc(Cl)c(Nc5ccc6c(c5)CC(=O)N6)n4)CC3)cc21` (stereo not drawn) [Example 34, 3-(6-(4-(5-chloro-4-((2-oxoindolin-5-yl)amino)pyrimidin-2-yl)piperazin-1-yl)-1-methyl-1H-indazol-3-yl)piperidine-2,6-dione], the figure is more than 60%.

`CN1C(=O)Cc2cc(Nc3nc(N4CCN(c5ccc6c(C7CCC(=O)NC7=O)nn(C)c6c5)CC4)ncc3Cl)ccc21` (stereo not drawn) [Example 35, 3-[6-[4-[5-chloro-4-[(1-methyl-2-oxo-indolin-5-yl)amino]pyrimidin-2-yl]piperazin-1-yl]-1-methyl-indazol-3-yl]piperidine-2,6-dione]: the Percent BCL6 remaining at maximal degradation (Ycon) was more than 60%. For `CN1C(=O)Cc2cc(Nc3nc(N4CCC(Nc5ccc6c(C7CCC(=O)NC7=O)nn(C)c6c5)CC4)ncc3C#N)ccc21` (stereo not drawn) [Example 36, 2-(4-((3-(2,6-dioxopiperidin-3-yl)-1-methyl-1H-indazol-6-yl)amino)piperidin-1-yl)-4-((1-methyl-2-oxoindolin-5-yl)amino)pyrimidine-5-carbonitrile], the Percent BCL6 remaining at maximal degradation (Ycon) was more than 60%. Consider `CN1C(=O)Cc2cc(Nc3nc(N4CCN(c5ccc6c(C7CCC(=O)NC7=O)nn(C)c6c5)C(=O)C4)ncc3Cl)ccc21` (stereo not drawn) [Example 37, 3-(6-(4-(5-chloro-4-((1-methyl-2-oxoindolin-5-yl)amino)pyrimidin-2-yl)-2-oxopiperazin-1-yl)-1-methyl-1H-indazol-3-yl)piperidine-2,6-dione], for which the Percent BCL6 remaining at maximal degradation (Ycon) is more than 60%. `CC1C(=O)N(c2ccc3c(C4CCC(=O)NC4=O)nn(C)c3c2)CCN1c1ncc(Cl)c(Nc2ccc3c(c2)CC(=O)N3C)n1` (stereo not drawn) [Example 38, 3-(6-(4-(5-chloro-4-((1-methyl-2-oxoindolin-5-yl)amino)pyrimidin-2-yl)-3-methyl-2-oxopiperazin-1-yl)-1-methyl-1H-indazol-3-yl)piperidine-2,6-dione]: the Percent BCL6 remaining at maximal degradation (Ycon) is more than 60%.
